Experimental data published in patent US8901317B2, “Tryptamine derivatives, their preparation and their use in gastropathy” (Council of Scientific & Industrial Research, priority 2010, dated 2014).

Experiments:
[1] = tested on: Ethanol-induced gastric mucosal injury; assay: Ethanol-induced gastric mucosal injury; type: in vivo, Sprague-Dwaley rats; settings: 1 ml of 50% ethanol oral; rats
[2] = tested on: intra mitochondrial superoxide; assay: Intra mitochondrial superoxide (MitoSOX); type: cell-based, rat; settings: indomethacin-treated cultured gastric mucosal cells; pretreatment
Method: Isolated mucosal cells from both control and indomethacin-treated cultured gastric mucosa were used for detection of intra mitochondrial superoxide using MitoSOX, an superoxide-sensitive fluorescence probe following the protocol as described in the product catalogue (Maity, P.; et al. J. Biol. Chem. 284:3058-3068; 2009). Cells were stained with the respective fluorescent probe in HB SS (pH 7.4) and incubated for 15 min at 37° C. in the dark as described in the manufacture's protocols. After the incubation, cells were washed with HBSS three times and continued for fluorescence microscopy (Leica, DM-2500, Leica Microsystems). Staining of MitoSOX was visualized using Red filter.

rats = assay: Toxicity (death) after injection in rats; type: in vivo; settings: conclusion from in vivo experiments
free iron = assay: Free iron (Phen Green SK); type: cell-based, rat; settings: in vitro cultured cell
Method: Isolated mucosal cells from both control and indomethacin-treated cultured gastric mucosa were used for free iron localization using Phen Green SK, an iron-sensitive fluorescence probe following the protocol as described in the product catalogue (Maity, P.; et al. J. Biol. Chem. 284:3058-3068; 2009). Cells were first incubated with Phen Green SK (20 μm) for 15 min at 37° C. in the dark. After the incubation, cells were washed with HBSS and used for fluorescence microscopy (Leica, DM-2500, Leica Microsystems). Staining of pheen Green SK was visualized using green filter.

SMILES: O=C(NCCc1c[nH]c2ccc(O)cc12)c1cc(O)c(O)c(O)c1 [Compound 3a, 3,4,5-trihydroxy-N-(2-(5-hydroxy-1H-indol-3-yl)ethyl)benzamide]
- gastroprotective effect in ethanol induced gastropathy [1]: protects the gastric mucosa
- mitochondrial superoxides (mitoSOX) [2]: restores all the NSAIDs-induced mitochondrial dysfuctions
- toxicity in rats (rats): nontoxic molecule
- intramitochondrial iron chelation (Phen Green SK) (free iron): chelates the intramitochondrial iron
